Assay results published in ChEMBL document CHEMBL1201862, “PubChem BioAssay data set” (2004).
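Protocol summary: plate cells (96-well), add compound at 5 concentrations, incubate 48 h, interpolate endpoints linearly. At the GI50, growth is halved.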 Calls of active or inactive are those of the source. No stated cut-off is given here; in the data, active = GI50 up to about 1.1 µM and inactive = higher.

Assays:
Test in all cases: NCI anticancer screen, dose series, 48 h
RPMI-8226 = tested on: RPMI-8226
RXF 393 = tested on: RXF 393
M19-MEL = tested on: M19-MEL
UACC-62 = tested on: UACC-62
DLD-1 = tested on: DLD-1
OVCAR-8 = tested on: OVCAR-8
KM12 = tested on: KM12
TK-10 = tested on: TK-10
HCT-116 = tested on: HCT-116
K562 = tested on: K562
IGROV-1 = tested on: IGROV-1
KM-20L2 = tested on: KM-20L2
SW-620 = tested on: SW-620
SK-OV-3 = tested on: SK-OV-3
A549 = tested on: A549
NCI-H522 = tested on: NCI-H522
LOX IMVI = tested on: LOX IMVI
U-251 = tested on: U-251
A498 = tested on: A498
M14 = tested on: M14
SF-295 = tested on: SF-295
COLO 205 = tested on: COLO 205
NCI-H226 = tested on: NCI-H226
SK-MEL-28 = tested on: SK-MEL-28
SK-MEL-5 = tested on: SK-MEL-5
NCI-H460 = tested on: NCI-H460
CAKI-1 = tested on: CAKI-1
DMS-273 = tested on: DMS-273
SNB-75 = tested on: SNB-75
XF498 = tested on: XF498
HCT-15 = tested on: HCT-15
OVCAR-5 = tested on: OVCAR-5
LXFL 529 = tested on: LXFL 529
HT-29 = tested on: HT-29
OVCAR-3 = tested on: OVCAR-3
MOLT-4 = tested on: MOLT-4
EKVX = tested on: EKVX
SK-MEL-2 = tested on: SK-MEL-2
HCC 2998 = tested on: HCC 2998
DMS-114 = tested on: DMS-114
UO-31 = tested on: UO-31
SNB-19 = tested on: SNB-19
UACC-257 = tested on: UACC-257
SF-268 = tested on: SF-268
Malme-3M = tested on: Malme-3M
ACHN = tested on: ACHN
SF-539 = tested on: SF-539
HL-60 = tested on: HL-60
SN12C = tested on: SN12C
NCI-H23 = tested on: NCI-H23
CCRF-CEM = tested on: CCRF-CEM
786-0 = tested on: 786-0
HOP-62 = tested on: HOP-62
OVCAR-4 = tested on: OVCAR-4
SR = tested on: SR

CN1C/C(=C\c2ccco2)c2nc(N)nc(-c3ccco3)c2C1
GI50 (RPMI-8226): 31.7 µM (inactive)
GI50 (RXF 393): > 100 µM (inactive)
GI50 (M19-MEL): > 100 µM (inactive)
GI50 (UACC-62): > 100 µM (inactive)
GI50 (DLD-1): > 100 µM (inactive)
GI50 (OVCAR-8): 75.2 µM (inactive)
GI50 (KM12): 31.5 µM (inactive)
GI50 (TK-10): > 100 µM (inactive)
GI50 (HCT-116): > 100 µM (inactive)
GI50 (K562): > 100 µM (inactive)
GI50 (IGROV-1): > 100 µM (inactive)
GI50 (KM-20L2): > 100 µM (inactive)
GI50 (SW-620): > 100 µM (inactive)
GI50 (SK-OV-3): > 100 µM (inactive)
GI50 (A549): > 100 µM (inactive)
GI50 (NCI-H522): > 100 µM (inactive)
GI50 (LOX IMVI): 60.4 µM (inactive)
GI50 (U-251): > 100 µM (inactive)
GI50 (A498): > 100 µM (inactive)
GI50 (M14): > 100 µM (inactive)
GI50 (SF-295): > 100 µM (inactive)
GI50 (COLO 205): > 100 µM (inactive)
GI50 (NCI-H226): 34.5 µM (inactive)
GI50 (SK-MEL-28): > 100 µM (inactive)
GI50 (SK-MEL-5): 72.8 µM (inactive)
GI50 (NCI-H460): > 100 µM (inactive)
GI50 (CAKI-1): > 100 µM (inactive)
GI50 (DMS-273): 88.1 µM (inactive)
GI50 (SNB-75): 85.3 µM (inactive)
GI50 (XF498): 23.6 µM (inactive)
GI50 (HCT-15): > 100 µM
GI50 (OVCAR-5): > 100 µM (inactive)
GI50 (LXFL 529): 74.1 µM (inactive)
GI50 (HT-29): 99.8 µM (inactive)
GI50 (OVCAR-3): 43.9 µM (inactive)
GI50 (MOLT-4): 48.9 µM (inactive)
GI50 (EKVX): > 100 µM (inactive)
GI50 (SK-MEL-2): > 100 µM (inactive)
GI50 (HCC 2998): > 100 µM (inactive)
GI50 (DMS-114): > 100 µM (inactive)
GI50 (UO-31): > 100 µM (inactive)
GI50 (SNB-19): > 100 µM (inactive)
GI50 (UACC-257): > 100 µM (inactive)
GI50 (SF-268): > 100 µM (inactive)
GI50 (Malme-3M): > 100 µM (inactive)
GI50 (ACHN): > 100 µM (inactive)
GI50 (SF-539): > 100 µM (inactive)
GI50 (HL-60): 52.7 µM (inactive)
GI50 (SN12C): > 100 µM (inactive)
GI50 (NCI-H23): > 100 µM (inactive)
GI50 (CCRF-CEM): 74.1 µM (inactive)
GI50 (786-0): > 100 µM (inactive)
GI50 (HOP-62): > 100 µM (inactive)

CCOC(=O)C(NC(=O)c1nc[nH]c1[N+](=O)[O-])C(C)C (centres undefined)
GI50 (RPMI-8226): 72.6 µM (inactive)
GI50 (M19-MEL): > 100 µM (inactive)
GI50 (UACC-62): > 100 µM (inactive)
GI50 (DLD-1): 25 µM (inactive)
GI50 (OVCAR-8): 84.9 µM (inactive)
GI50 (KM12): > 100 µM (inactive)
GI50 (HCT-116): > 100 µM (inactive)
GI50 (K562): > 100 µM (inactive)
GI50 (IGROV-1): > 100 µM (inactive)
GI50 (SW-620): > 100 µM (inactive)
GI50 (SK-OV-3): > 100 µM (inactive)
GI50 (A549): > 100 µM (inactive)
GI50 (NCI-H522): > 100 µM (inactive)
GI50 (LOX IMVI): > 100 µM (inactive)
GI50 (U-251): 34.5 µM (inactive)
GI50 (A498): > 100 µM (inactive)
GI50 (M14): > 100 µM (inactive)
GI50 (SF-295): 47.9 µM (inactive)
GI50 (COLO 205): 82 µM (inactive)
GI50 (NCI-H226): 30.8 µM (inactive)
GI50 (SK-MEL-28): > 100 µM (inactive)
GI50 (SK-MEL-5): 17.3 µM (inactive)
GI50 (NCI-H460): 50.6 µM (inactive)
GI50 (CAKI-1): > 100 µM (inactive)
GI50 (DMS-273): 53.6 µM (inactive)
GI50 (SNB-75): > 100 µM (inactive)
GI50 (XF498): 19.9 µM (inactive)
GI50 (OVCAR-4): > 100 µM (inactive)
GI50 (SR): 61.1 µM (inactive)
GI50 (HCT-15): > 100 µM
GI50 (LXFL 529): 74.3 µM (inactive)
GI50 (HT-29): 74 µM (inactive)
GI50 (OVCAR-3): > 100 µM (inactive)
GI50 (MOLT-4): 72.4 µM (inactive)
GI50 (EKVX): 94 µM (inactive)
GI50 (SK-MEL-2): > 100 µM (inactive)
GI50 (HCC 2998): 66.4 µM (inactive)
GI50 (DMS-114): > 100 µM (inactive)
GI50 (UO-31): > 100 µM (inactive)
GI50 (SNB-19): > 100 µM (inactive)
GI50 (UACC-257): 94.8 µM (inactive)
GI50 (SF-268): > 100 µM (inactive)
GI50 (Malme-3M): > 100 µM (inactive)
GI50 (ACHN): > 100 µM (inactive)
GI50 (SF-539): > 100 µM (inactive)
GI50 (HL-60): 27.6 µM (inactive)
GI50 (SN12C): > 100 µM (inactive)
GI50 (NCI-H23): 31.3 µM (inactive)
GI50 (CCRF-CEM): 47.2 µM (inactive)
GI50 (786-0): 71.1 µM (inactive)
GI50 (HOP-62): > 100 µM (inactive)
